Data taken from patent US20200237705A1, “METHOD TO TREAT ANTIMICROBIAL RESISTANT CANDIDA” (Hennepin Life Sciences, LLC, priority 2017, published 2020).

How the values were obtained:
[1] = system: Candida; conditions: women of menstrual age; Strandberg et al. 2010; cited from earlier work
[2] = system: C. auris; test: Killing of C. auris clinical isolates by GML alone in Todd Hewitt growth medium (plate counts); format: cell-based, Candida auris; conditions: two clinical isolates, 37° C., by 8 hours' incubation, limit of detection 10 CFUs/ml
Text: In a first study performed was to test the ability of GML alone to kill two recent clinical isolates of C. auris (FIG. 1). […] The lower limit of detection of Candida is 10 CFUs/ml for these studies.

[3] = system: C. albicans, C. glabrata, C. krusei, C. parapsilosis, and C. pseudotropicalis; conditions: in vitro; Strandberg et al. 2010; cited from earlier work

Glycerol monolaurate [GML]
Numbers of Candida vaginally in women [1]: can reduce the numbers of Candida vaginally
GML concentrations at which C. auris is killed (significant killing defined as ≥3 logs killing) [2]: ≥ 50 μg/ml
Ability to kill selected Candida species [3]: ability to kill selected Candida species
